Measurements published in patent US12649723B2, “Carbonohydrazonoyl dicyanide compounds comprising 2 or more aryl or heteroaryl connected via linker and use thereof” (KOREA INSTITUTE OF SCIENCE AND TECHNOLOGY, priority 2020, dated 2026).

Legend:
tau protein = target: T1, tau protein (Homo sapiens, UniProt P10636); assay: Tau-BiFC cell model: inhibition of tau protein aggregation; assay type: cell-based; details: for remaining activity at 10 µM: 48 h, compound 10 μM, BiFC fluorescence, Forskolin-only group = 100% tau protein-aggregated state, read-out: Response (% @10 μM); for IC50: Tau BiFC in cells, with Forskolin 30 μM, 48 hours
T1 construct: fused on or other part: Split fluorescent-protein halves for BiFC are fused to tau; In the published tau-BiFC line these are Venus VN173 and VC155
In short: (§1)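 Tau-BiFC cells were exposed for 48 h to compound (1, 3, 10 μM for screening; 0.03–30 μM for dose-response) plus 30 μM Forskolin to induce aggregation. BiFC fluorescence was normalised to Forskolin-only minus untreated controls, with IC50 from nonlinear regression. Viability was Hoechst-stained nuclei counts relative to Forskolin-only wells.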

Tau-BiFC cells = assay: Cell viability (cytotoxicity) in tau-BiFC cells, count of stained nuclei; assay type: cell-based; details: compound 10 μM; Forskolin-only group = 100% cell viability
In short: as §1

T1 sequence (P10636 2-441 isoform P10636-8 limits assumed): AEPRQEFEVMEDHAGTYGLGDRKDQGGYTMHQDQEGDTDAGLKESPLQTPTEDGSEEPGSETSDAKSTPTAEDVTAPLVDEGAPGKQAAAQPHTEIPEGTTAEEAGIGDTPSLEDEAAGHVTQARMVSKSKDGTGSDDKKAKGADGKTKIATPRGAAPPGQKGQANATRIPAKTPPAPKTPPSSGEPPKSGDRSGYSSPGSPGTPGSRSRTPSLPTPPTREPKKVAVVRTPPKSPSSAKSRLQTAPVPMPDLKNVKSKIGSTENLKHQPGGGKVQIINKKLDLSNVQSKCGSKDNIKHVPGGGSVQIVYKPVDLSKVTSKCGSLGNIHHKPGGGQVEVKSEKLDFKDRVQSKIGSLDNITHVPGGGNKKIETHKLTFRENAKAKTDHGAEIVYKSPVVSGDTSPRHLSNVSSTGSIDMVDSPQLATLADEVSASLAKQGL

N#CC(C#N)=NNc1ccc(NC(=O)c2cocn2)nc1 [Compound 113, (6-(oxazole-4-carboxamido)pyridin-3-yl)carbonohydrazonoyl dicyanide]
remaining activity at 10 µM (tau protein): 0%
IC50 (tau protein): 0.2 µM
Cell viability (% @10 μM) (Tau-BiFC cells): 147%

N#CC(C#N)=NNc1ccc(NC(=O)c2cnco2)nc1 [Compound 114, (6-(oxazole-5-carboxamido)pyridin-3-yl)carbonohydrazonoyl dicyanide]
remaining activity at 10 µM (tau protein): 0%
IC50 (tau protein): 1.5 µM
Cell viability (% @10 μM) (Tau-BiFC cells): 149.5%

N#CC(C#N)=NNc1ccc(NC(=O)c2ccon2)nc1 [Compound 115, (6-(isoxazole-3-carboxamido)pyridin-3-yl)carbonohydrazonoyl dicyanide]
remaining activity at 10 µM (tau protein): 0%
IC50 (tau protein): 0.6 µM
Cell viability (% @10 μM) (Tau-BiFC cells): 157.6%

N#CC(C#N)=NNc1ccc(Oc2nccs2)cc1 [Compound 116, (4-(thiazol-2-yloxy)phenyl)carbonohydrazonoyl dicyanide]
remaining activity at 10 µM (tau protein): 0%
IC50 (tau protein): 1.4 µM
Cell viability (% @10 μM) (Tau-BiFC cells): 124%

N#CC(C#N)=NNc1ccc(OCc2ccccc2)cc1 [Compound 117, (4-(benzyloxy)phenyl)carbonohydrazonoyl Dicyanide]
remaining activity at 10 µM (tau protein): 16.6%
IC50 (tau protein): 1.24 µM
Cell viability (% @10 μM) (Tau-BiFC cells): 126.0%

N#CC(C#N)=NNc1ccc(OCc2ccc(C(F)(F)F)cc2)cc1 [Compound 118, (4-(4-(trifluoromethyl)benzyloxy)phenyl)carbonohydrazonoyl dicyanide]
remaining activity at 10 µM (tau protein): 25.7%
IC50 (tau protein): 5.75 µM
Cell viability (% @10 μM) (Tau-BiFC cells): 82.6%

Cc1ccc(COc2ccc(NN=C(C#N)C#N)cc2)cc1 [Compound 119, (4-(4-methylbenzyloxy)phenyl)carbonohydrazonoyl dicyanide]
remaining activity at 10 µM (tau protein): 38.9%
IC50 (tau protein): 3.55 µM
Cell viability (% @10 μM) (Tau-BiFC cells): 112.5%

COc1ccc(CCOc2ccc(NN=C(C#N)C#N)cc2)cc1 [Compound 120, (4-(4-methoxyphenethoxy)phenyl)carbonohydrazonoyl dicyanide]
remaining activity at 10 µM (tau protein): 0%
IC50 (tau protein): 1.45 µM
Cell viability (% @10 μM) (Tau-BiFC cells): 66.2%

N#CC(C#N)=NNc1ccc(OCCc2ccc(C(F)(F)F)cc2)cc1 [Compound 121, (4-(4-(trifluoromethyl)phenethoxy)phenyl)carbonohydrazonoyl dicyanide]
remaining activity at 10 µM (tau protein): 3.4%
IC50 (tau protein): 4.61 µM
Cell viability (% @10 μM) (Tau-BiFC cells): 72.7%

N#CC(C#N)=NNc1ccc(OCCc2ccccc2)cc1 [Compound 122, (4-phenethoxyphenyl)carbonohydrazonoyl Dicyanide]
remaining activity at 10 µM (tau protein): 11.7%
IC50 (tau protein): 1.86 µM
Cell viability (% @10 μM) (Tau-BiFC cells): 92.9%

N#CC(C#N)=NNc1ccc(OCCc2ccc(Cl)cc2)cc1 [Compound 123, (4-(4-chlorophenethoxy)phenyl)carbonohydrazonoyl dicyanide]
remaining activity at 10 µM (tau protein): 0%
IC50 (tau protein): 0.78 µM
Cell viability (% @10 μM) (Tau-BiFC cells): 34.6%

N#CC(C#N)=NNc1ccc(OCc2cnccn2)cc1 [Compound 125, (4-(pyrazin-2-ylmethoxy)phenyl)carbonohydrazonoyl dicyanide]
remaining activity at 10 µM (tau protein): 0%
IC50 (tau protein): 2.3 µM
Cell viability (% @10 μM) (Tau-BiFC cells): 140.5%

N#CC(C#N)=NNc1ccc(OCc2nc3ccccc3[nH]2)cc1 [Compound 126, (4-((1H-benzo[d]imidazol-2-yl)methoxy)phenyl)carbonohydrazonoyl dicyanide]
remaining activity at 10 µM (tau protein): 0%
IC50 (tau protein): 0.1 µM
Cell viability (% @10 μM) (Tau-BiFC cells): 133.2%

N#CC(C#N)=NNc1ccc(OCc2cccnn2)cc1 [Compound 127, (4-(pyridazin-3-ylmethoxy)phenyl)carbonohydrazonoyl dicyanide]
remaining activity at 10 µM (tau protein): 0%
IC50 (tau protein): 1.2 µM
Cell viability (% @10 μM) (Tau-BiFC cells): 134.9%

N#CC(C#N)=NNc1ccc(OCc2nc3ccccc3o2)cc1 [Compound 128, (4-(benzo[d]oxazol-2-ylmethoxy)phenyl)carbonohydrazonoyl dicyanide]
remaining activity at 10 µM (tau protein): 0%
IC50 (tau protein): 0.3 µM
Cell viability (% @10 μM) (Tau-BiFC cells): 108.5%
